Here are results for 44 compounds from the supplement of paper PMC10949913.

The test system of experiment [1] is CU-ACC1. The experiment is described as follows: ExcessHSA synergy score with TAK-243; higher = less synergy (negative = synergistic). Conditions: combined with: TAK-243 (MLN-7243) matrix, 9-point 1:2 dilution. As to the method: (§1)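 Each drug was tested at 9 points with 1:2 dilution; viability was read by CellTiter-Glo as in the single-agent screen. Synergy is scored as ExcessHSA (sum of excess over highest single agent; negative = synergy) and the Beta interaction parameter (<1 synergy).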

For experiment [2], the system named is NCI-H295R. The experiment is described as above. Conditions: combined with: TAK-243 (MLN-7243) matrix, 9-point 1:2 dilution. As to the method:
as §1

The subject of experiment [3] is CU-ACC1. The experiment is described as follows: AC50 viability; higher = less potent. Conditions: 48 h. The gist of the method: (§2)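 After 48 h of treatment with 23 nL of each library compound at 11 concentrations, three adrenocortical carcinoma cell lines in 1,536-well plates (500–1,000 cells/well, 5 µL medium) were given CellTiter-Glo for 15 minutes at room temperature. Luminescence was then read and normalised per plate to vehicle and empty-well controls. AC50 and area under the curve were drawn from fitted concentration-response curves of inhibitory or non-responding classes only.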

Experiment [4] deals with CU-ACC2. The experiment can be described thus: AC50 viability; higher = less potent. Conditions: 48 h. Summed up:
as §2

Experiment [5] deals with NCI-H295R. The experiment can be described thus: AC50 viability; higher = less potent. Conditions: 48 h. The gist of the method: as §2
Experiment [6] relates to CU-ACC1. The experiment is described as follows: area under concentration-response curve (viability) (AUC (a.u.)); higher = less active. Particulars: 48 h. The gist of the method:
as §2

Experiment [7] has as its system CU-ACC2. Described as above. Conditions: 48 h. Summed up:
as §2

The test system of experiment [8] is NCI-H295R. The experiment is described as above. Conditions: 48 h. The gist of the method: as §2

Where a name gives a salt, the structure may show the parent alone. ± gives the standard deviation of the averaged measurements.

`O=c1[nH]c(CSC2CCC(O)CC2)nc2cc(OCC3CC3)cc(F)c12` (configuration not stated): the “ExcessHSA synergy score with TAK-243” value with CU-ACC1 [1] is 650; in the experiment on NCI-H295R [2], 1170.
In the same order, the values of `O=C(CCCCCCNC(=O)c1cnc(N(c2ccccc2)c2ccccc2Cl)nc1)NO` [Citarinostat (ACY-241)] are -47.7 and -290.
Take `O=c1sn(-c2cccc3ccccc23)c(=O)n1Cc1ccccc1` [Tideglusib]: the “ExcessHSA synergy score with TAK-243” value is -108 with CU-ACC1 [1] and -74.2 with NCI-H295R [2].
For `C=CCNc1nc(N)c(C(=O)c2ccc(F)s2)s1` [TT-10] the same measures were 584 and 922.
For `O=C(C[C@@H](C(F)F)n1ccc(F)n1)N1CCC(O)(Cn2cnc3c(cnn3-c3ccc(F)cc3)c2=O)CC1` [FT671] the same measures were -97.6 and 431.
In the same order, the values of `CO[C@@]12[C@H](COC(N)=O)C3=C(C(=O)C(C)=C(N)C3=O)N1C[C@@H]1N[C@@H]12` [Mitomycin C] are 133 and 200.
Take `CNC(=O)c1cccc(-c2ccc3c(N4CCOC[C@@H]4C)nc(N4CCOC[C@@H]4C)nc3n2)c1` [Vistusertib]: the figures for the “ExcessHSA synergy score with TAK-243” value in the experiment on CU-ACC1 [1] and in the experiment on NCI-H295R [2] were -211 ± 410 and -549 ± 350, respectively.
For `O=C(NCc1ccc(S(=O)(=O)c2cccc(C(F)(F)F)c2)cc1)c1cnc2[nH]ncc2c1` [GNE-618] the same measures were -406 and -555.
For `C[C@H]1CCN1c1nc(N2C[C@@H]3[C@@H](CC(=O)O)[C@@H]3C2)cc(C(F)(F)F)n1` [Ketohexokinase inhibitor 1] the same measures were -31.2 and 49.1.
In the same order, the values of `CC(=O)N1CCC(Nc2cc(C(=O)NC[C@H](O)CN3CCc4ccccc4C3)ncn2)CC1` are 517 and 649.
As to `CO/C1=C\C(C)=C\[C@@H](C)[C@@H](O)[C@@H](C)C/C(C)=C/C=C/[C@H](OC)[C@@H]([C@@H](C)[C@@H](O)[C@H](C)[C@@]2(O)C[C@@H](O)[C@H](C)[C@@H](C(C)C)O2)OC1=O` [Bafilomycin A1], the results for the “ExcessHSA synergy score with TAK-243” value in the experiment on CU-ACC1 [1] and in the experiment with NCI-H295R [2] were 14.5 and -139, respectively.
For `CCS(=O)(=O)c1cc2cc(C[C@](O)(CC(C)(C)c3ccc(F)cc3C(N)=O)C(F)(F)F)[nH]c2cn1`, the “ExcessHSA synergy score with TAK-243” value worked out at 653 in the experiment on CU-ACC1 [1] and 885 in the experiment on NCI-H295R [2].
As to `Nc1ncn([C@@H]2O[C@H](CO)[C@@H](O)[C@H]2O)c(=O)n1` [5-Azacitidine], the “ExcessHSA synergy score with TAK-243” value with CU-ACC1 [1] turned out to be 346.
In the case of `CC(C)n1c(=O)n(C)c2cnc3cc(F)c(-c4ccc(OCCCN5CCCCC5)nc4)cc3c21` [AZD-1390], the “ExcessHSA synergy score with TAK-243” value turned out to be 697 in the experiment with CU-ACC1 [1] and 286 in the experiment on NCI-H295R [2].
`Nc1ncnc2c1ncn2C(C=O)OC(C=O)CO` (configuration not stated) [Adenosine Dialdehyde]: the “ExcessHSA synergy score with TAK-243” value came to 349 with CU-ACC1 [1] and 712 in the experiment with NCI-H295R [2].
For `CC[C@@H]1C(=O)N(C)c2cnc(Nc3ccc(C(=O)N[C@H]4CC[C@H](N5CCN(CC6CC6)CC5)CC4)cc3OC)nc2N1C(C)C` [Volasertib] the same measures were -422 and -938.
In the same order, the values of `CCN(C(=O)c1cc(F)ccc1Oc1cncnc1N1CC2(CCN(C[C@H]3CC[C@H](NS(=O)(=O)CC)CC3)CC2)C1)C(C)C` [SNDX-5613] are -82.8 and 50.
In the same order, the values of `CNC(=O)Nc1ccc2c(c1)CC[C@@]21OC(=O)N(CC(=O)N(Cc2ccc(F)cc2)[C@@H](C)C(F)(F)F)C1=O` [A-485] are 305 and 334.
With `Cc1cc(Oc2ccc3nc(COc4ccc(CC5SC(=O)NC5=O)cc4)n(C)c3c2)cc(C)c1N` (configuration not stated) [Efatutazone], the results for the “ExcessHSA synergy score with TAK-243” value in the experiment on CU-ACC1 [1] and in the experiment with NCI-H295R [2] were -278 and -69.9, respectively.
In the same order, the values of `Cc1nc(-c2nc(-c3ccc(OC(F)(F)F)cc3)no2)nn1Cc1cccc(N2CCC(S(C)(=O)=O)CC2)c1` are 422 and 691.
In the same order, the values of `COc1cc2c(cc1-c1c(C)noc1C)cc(C)c(=O)n2Cc1ccccn1` [ODM-207] are 182 and -3.62.
For `NC(=O)c1c(NC(=O)COCc2cc(-c3cccs3)on2)sc2c1CCCC2` the same measures were 37.9 and 122.
In the case of `CCOC(=O)[C@@H](N)CCC(=O)N[C@@H](CSCc1ccccc1)C(=O)N[C@@H](C(=O)OCC)c1ccccc1` [Ezatiostat], the “ExcessHSA synergy score with TAK-243” value is -271 with CU-ACC1 [1] and -222 with NCI-H295R [2].
As to `O=C(Nc1ccnc(C(F)(F)F)c1)c1cnn(-c2cccc3c(=O)[nH]ccc23)c1C(F)(F)F`, the “ExcessHSA synergy score with TAK-243” value was -300 in the experiment on CU-ACC1 [1] and -544 in the experiment with NCI-H295R [2].
For `Cc1cc(F)c(C(=O)Nc2cccc(-c3nncn3C(C)C)n2)cc1-n1cnc(C2CC2)c1` [Selonsertib] the same measures were 496 and 231.
On to `CO[C@H]1/C=C/C[C@H](C)[C@@H](C)S(=O)(=O)NC(=O)c2ccc3c(c2)N(C[C@@H]2CC[C@H]21)C[C@@]1(CCCc2cc(Cl)ccc21)CO3` [AMG-176], for which the “ExcessHSA synergy score with TAK-243” value with CU-ACC1 [1] was -10.7; in the experiment with NCI-H295R [2], -202.
Take `Nc1nc(OCc2ccccc2)c2nc[nH]c2n1` [O6-Benzylguanine]: the “ExcessHSA synergy score with TAK-243” value with CU-ACC1 [1] is -248; with NCI-H295R [2], 45.7.
In the same order, the values of `CC[C@@]1(O)C(=O)OCc2c1cc1n(c2=O)Cc2cc3c(CN(C)C)c(O)ccc3nc2-1` [Topotecan hydrochloride] are -710 and -194.
In the same order, the values of `CO[C@H]1C[C@@H]2CC[C@@H](C)[C@@](O)(O2)C(=O)C(=O)N2CCCC[C@H]2C(=O)O[C@H]([C@H](C)C[C@@H]2CC[C@@H](OCCO)[C@H](OC)C2)CC(=O)[C@H](C)/C=C(\C)[C@@H](O)[C@@H](OC)C(=O)[C@H](C)C[C@H](C)/C=C/C=C/C=C/1C` [Everolimus] are -885 and -1040.
For `Cc1cc2c(C(N)=O)cccc2n1-c1nc2c(c(NCc3ccccc3)n1)COCC2` [CB-5083] the same measures were -143 and 71.1.
Take `CC1(C)CCC(CN2CCN(c3ccc(C(=O)NS(=O)(=O)c4ccc(NCC5CCOCC5)c([N+](=O)[O-])c4)c(Oc4cnc5[nH]ccc5c4)c3)CC2)=C(c2ccc(Cl)cc2)C1` [Venetoclax (ABT-199)]: the results for the “ExcessHSA synergy score with TAK-243” value in the experiment on CU-ACC1 [1] and in the experiment on NCI-H295R [2] were -249 and -424, respectively.
In the same order, the values of `CC(C)NC[C@@H](C(=O)N1CCN(c2ncnc3c2[C@H](C)C[C@H]3O)CC1)c1ccc(Cl)cc1` [Ipatasertib] are 85.6 and -60.3.
`CCN(c1cc(-c2ccc(CN3CCOCC3)cc2)cc(C(=O)NCc2c(C)cc(C)[nH]c2=O)c1C)C1CCOCC1`: the “ExcessHSA synergy score with TAK-243” value with CU-ACC1 [1] was -215.
With `C[C@H]1N=C(N(C)C)N=C(N)N1` [Imeglimin], the “ExcessHSA synergy score with TAK-243” value in the experiment on CU-ACC1 [1] was -159; in the experiment on NCI-H295R [2] it was 50.3.
In the same order, the values of `Nc1c(C(=O)c2ccccc2)sc2[nH]c(=O)c(C(=O)O)cc12` are -23.4 and -51.1.
With `Nc1nc2[nH]cc(CCc3ccc(C(=O)N[C@@H](CCC(=O)O)C(=O)O)cc3)c2c(=O)[nH]1`, the “ExcessHSA synergy score with TAK-243” value with CU-ACC1 [1] stood at 147.
Take `Nc1ncn([C@@H]2O[C@H](CO)[C@@H](O)[C@H]2O)c(=O)n1` [5-Azacytidine]: in the experiment on NCI-H295R [2], the “ExcessHSA synergy score with TAK-243” value was determined as 360.
Same read-out and setting: the value for `Nc1nc2[nH]cc(CCc3ccc(C(=O)N[C@@H](CCC(=O)O)C(=O)O)cc3)c2c(=O)[nH]1` [Pemetrexed] was 397.
The same measure, in the same setting: the value for `CCN(c1cc(-c2ccc(CN3CCOCC3)cc2)cc(C(=O)NCc2c(C)cc(C)[nH]c2=O)c1C)C1CCOCC1` [Tazemetostat] was -203.
As to `C=CC(=O)N1CCC(Oc2cc3c(Nc4ccc(Cl)c(Cl)c4F)ncnc3cc2OC)CC1`, the values for the AC50 viability in the experiment with CU-ACC1 [3], with CU-ACC2 [4] and in the experiment on NCI-H295R [5] were 4.68 µM, 20.9 µM and 20.9 µM, respectively. The “area under concentration-response curve” value with CU-ACC1 [6] amounted to 400; with CU-ACC2 [7], 532; in the experiment on NCI-H295R [8], 440.
Take `CN[C@@H]1C[C@H]2O[C@@](C)([C@@H]1OC)n1c3ccccc3c3c4c(c5c6ccccc6n2c5c31)C(=O)N[C@H]4O`: the AC50 viability in the experiment on CU-ACC1 [3] amounted to 0.762 µM; in the experiment with CU-ACC2 [4] it was 0.34 µM; in the experiment on NCI-H295R [5], 0.959 µM. Further, the “area under concentration-response curve” value was 301 in the experiment with CU-ACC1 [6], 209 in the experiment with CU-ACC2 [7] and 269 in the experiment on NCI-H295R [8].
On to `CCCCCCCOc1ccc(CCC(N)(CO)CO)cc1C(F)(F)F`, for which the AC50 viability with CU-ACC1 [3] is 14.8 µM; in the experiment on CU-ACC2 [4], 16.6 µM; in the experiment with NCI-H295R [5], 9.34 µM. In addition, the “area under concentration-response curve” value in the experiment with CU-ACC1 [6] is 446; in the experiment with CU-ACC2 [7], 553; in the experiment with NCI-H295R [8], 466.
With `CN1CCN(C(=O)c2ccc3cc(CCNc4ncnc5ccc(C#N)cc45)ccc3c2)CC1`, the AC50 viability with CU-ACC1 [3] was 4.17 µM; with CU-ACC2 [4] it was 16.6 µM; in the experiment with NCI-H295R [5], 2.95 µM. In addition, the figures for the “area under concentration-response curve” value with CU-ACC1 [6], in the experiment on CU-ACC2 [7] and with NCI-H295R [8] were 397, 499 and 436, respectively.
Regarding `CNC(=O)c1cc(Oc2ccc(NC(=O)Nc3ccc(Cl)c(C(F)(F)F)c3)cc2)ccn1`, the figures for the AC50 viability in the experiment on CU-ACC1 [3], in the experiment on CU-ACC2 [4] and with NCI-H295R [5] were 18.6 µM, 23.5 µM and 18.6 µM, respectively. The “area under concentration-response curve” value in the experiment on CU-ACC1 [6] turned out to be 518; in the experiment with CU-ACC2 [7], 521; with NCI-H295R [8], 539.
